The values that follow come from patent publication US10975037B2 (priority 2018, dated 2021).

In general, inhibition refers to the change of the read-out against control, counted positive when it falls. A word on the pIC50: it is the negative decadic logarithm of the IC50, by convention in mol/L. What is called pKd is the Kd on a negative log10 scale, so that one unit is a factor of ten.

pIC50, pKd: −log10 of the molar value. Where a name gives a salt, the structure may show the parent alone. Read-outs that look alike come from different tables or passages of the source. Marks after values point to notes of the source that are not given here.

One experiment deals with full-length human RORγt (Homo sapiens (Human), UniProt P51449). Kind of experiment: RORγt (full-length human) reporter assay, conditions A or B, HEK293T cells. Conditions: for inhibition at 2 µM: 2 μM compound concentration; for inhibition at 6 µM: read-out: RORγt (FL) Reporter Assay A or B, % inhibition @ 6 μM, 6 μM compound concentration; for inhibition at 0.67 µM: 0.67 μM compound concentration (footnote ****). The format is cell-based. In a few lines:
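After 16–20 h, dual firefly/Renilla luciferase luminescence was read. Firefly signal was normalized to DMSO and saturating reference compound, then to Renilla, and fitted for IC50; % inhibition is versus DMSO.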
On the technique in general: In a reporter assay the amount or activity of a reporter protein is the signal.

Experiment [1] addresses human RORγt ligand binding domain (RORγt LBD) (Homo sapiens (Human), UniProt P51449). The experiment in a line: RORγt ThermoFluor® assay (thermal shift binding). In a few lines: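 Thermal shift with 0.065 mg/mL RORγt LBD and 60 μM 1,8-ANS in 100 mM Hepes pH 7.0, 10 mM NaCl, 2.5 mM GSH, 0.002% Tween-20.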
Background: DSF heats the sample and reads unfolding from a dye or from intrinsic fluorescence.

[2] abbreviates: HEK-293T, 3 μM compound concentration (footnote *), read-out: RORγt (FL) Reporter Assay A or B, % inhibition.
The mark [3] stands for this setting: RORγt (FL) Reporter Assay A or B, IC50, HEK293T cells.
[4] abbreviates: HEK-293T, read-out: RORγt (FL) Reporter Assay A or B, % inhibition.
The mark [5] stands for this setting: read-out: ThermoFluor® Assay, Kd.

Sequence of full-length human RORγt (P51449 other isoform, or with tags, fused parts or gaps): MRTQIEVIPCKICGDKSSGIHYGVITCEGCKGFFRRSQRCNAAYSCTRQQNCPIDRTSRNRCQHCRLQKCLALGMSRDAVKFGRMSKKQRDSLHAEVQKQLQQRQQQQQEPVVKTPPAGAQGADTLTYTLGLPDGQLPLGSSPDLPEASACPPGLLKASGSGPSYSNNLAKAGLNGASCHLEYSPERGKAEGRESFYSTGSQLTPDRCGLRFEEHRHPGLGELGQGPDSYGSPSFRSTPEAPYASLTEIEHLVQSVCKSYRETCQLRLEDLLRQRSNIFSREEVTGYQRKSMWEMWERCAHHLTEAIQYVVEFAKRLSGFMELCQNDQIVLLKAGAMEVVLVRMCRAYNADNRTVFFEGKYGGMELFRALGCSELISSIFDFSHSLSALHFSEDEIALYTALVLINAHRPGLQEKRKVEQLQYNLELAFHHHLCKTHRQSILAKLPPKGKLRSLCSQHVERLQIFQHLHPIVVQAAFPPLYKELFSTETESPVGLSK
Sequence of human RORγt ligand binding domain (RORγt LBD) (P51449 other isoform, or with tags, fused parts or gaps): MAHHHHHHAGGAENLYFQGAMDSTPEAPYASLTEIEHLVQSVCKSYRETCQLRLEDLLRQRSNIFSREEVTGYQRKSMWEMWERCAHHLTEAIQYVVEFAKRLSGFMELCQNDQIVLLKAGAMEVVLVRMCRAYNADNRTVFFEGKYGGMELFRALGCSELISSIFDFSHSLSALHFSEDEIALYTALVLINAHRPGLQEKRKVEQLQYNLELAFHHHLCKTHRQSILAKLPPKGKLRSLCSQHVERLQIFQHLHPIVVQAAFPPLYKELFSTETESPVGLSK

Take `CCn1nc(C(=O)NC[C@]2(O)CC[C@@H](S(C)(=O)=O)C[C@H]2N)c(Cl)c1-c1ccc(CC(C)(C)C(F)(F)F)cc1OC(F)F` (single isomer, unassigned) [Example 6, N-(((1R*,2R*,4R*)-2-Amino-1-hydroxy-4-(methylsulfonyl)cyclohexyl)methyl)-4-chloro-5-(2-(difluoromethoxy)-4-(3,3,3-trifluoro-2,2-dimethylpropyl)phenyl)-1-ethyl-1H-pyrazole-3-carboxamide Hydrobromide]: the inhibition at 3 µM on full-length human RORγt (setting [2]) was found to be 117%. Moreover, the pIC50 at full-length human RORγt (setting [3]) is 7.54. Moreover, in experiment [1] (ThermoFluor® Assay, Kd), the pKd is 8.62.

On to `CCn1nc(C(=O)NC[C@H]2CC[C@H](S(C)(=O)=O)CC2)c(Cl)c1-c1ccc(N[C@H](C)C(F)(F)F)cc1F` [Example 181, 4-Chloro-1-ethyl-5-(2-fluoro-4-(((R)-1,1,1-trifluoropropan-2-yl)amino)phenyl)-N-(((1r,4R)-4-(methylsulfonyl)cyclohexyl)methyl)-1H-pyrazole-3-carboxamide], for which the inhibition at 2 µM at full-length human RORγt (setting [4]) stood at 101%. This molecule showed a pIC50 at full-length human RORγt (setting [3]) of 7.35. Moreover, the pKd in experiment [1] (setting [5]) was 8.15.

For `CCn1nc(C(=O)NC[C@]2(O)CC[C@@H](S(C)(=O)=O)CC2)c(Cl)c1-c1ccc([C@@](C)(O)CC(F)(F)F)cc1OC(F)F` (single isomer, unassigned) [Example 99, 4-Chloro-5-(2-(difluoromethoxy)-4-((S*)-4,4,4-trifluoro-2-hydroxybutan-2-yl)phenyl)-1-ethyl-N-(((1s,4R)-1-hydroxy-4-(methylsulfonyl)cyclohexyl)methyl)-1H-pyrazole-3-carboxamide], the inhibition at 3 µM at full-length human RORγt (setting [2]) is -21%. This molecule also showed a pIC50 on full-length human RORγt (setting [3]) of 5.59. For the same molecule, in experiment [1] (ThermoFluor® Assay, Kd), the pKd was 6.64.

As for `CCn1nc(C(=O)NC[C@H]2CC[C@@H](S(C)(=O)=O)CO2)c(Cl)c1-c1ccc(N[C@H](C)C(F)(F)F)cc1OC` (relative stereo) [Example 17, 4-Chloro-1-ethyl-5-(2-methoxy-4-(((R)-1,1,1-trifluoropropan-2-yl)amino)phenyl)-N-(((2R*,5R*)-5-(methylsulfonyl)tetrahydro-2H-pyran-2-yl)methyl)-1H-pyrazole-3-carboxamide], on full-length human RORγt (HEK-293T), the inhibition at 6 µM is 67%. On full-length human RORγt (setting [3]), this molecule showed a pIC50 of 5.66. The pKd in experiment [1] (ThermoFluor® Assay, Kd) is 5.89.

In the case of `CCn1nc(C(=O)NC[C@H]2CC[C@H](S(N)(=O)=O)CC2)c(Cl)c1-c1ccc(C[C@H](C)C(F)(F)F)cc1OC(F)F` (single isomer, unassigned) [Example 54, 4-Chloro-5-(2-(difluoromethoxy)-4-((S*)-3,3,3-trifluoro-2-methylpropyl)phenyl)-1-ethyl-N-(((1r,4S)-4-sulfamoylcyclohexyl)methyl)-1H-pyrazole-3-carboxamide], the inhibition at […] on full-length human RORγt (HEK-293T, 0.33 μM compound concentration (footnote *****), read-out: RORγt (FL) Reporter Assay A or B, % inhibition) stood at 102%. Moreover, the pIC50 against full-length human RORγt (setting [3]) was 8.01. Besides, the pKd in experiment [1] (ThermoFluor® Assay, Kd) was 9.16.

`CCOC(=O)[C@]1(CNC(=O)c2nn(CC)c(-c3ccc(N[C@H](C)C(F)(F)F)cc3OC)c2Cl)CC[C@@H](S(C)(=O)=O)CC1` (relative stereo) [Example 95, Ethyl (1r*,4R*)-1-((4-chloro-1-ethyl-5-(2-methoxy-4-(((R)-1,1,1-trifluoropropan-2-yl)amino)phenyl)-1H-pyrazole-3-carboxamido)methyl)-4-(methylsulfonyl)cyclohexane-1-carboxylate]: on full-length human RORγt (setting [4]), the inhibition at 2 µM is 76%. This molecule also gave a pIC50 against full-length human RORγt (setting [3]) of 6.42. Moreover, in experiment [1] (ThermoFluor® Assay, Kd), the pKd is 6.96.

Turning to `CCOC(=O)[C@]1(CNC(=O)c2nn(CC)c(-c3ccc(N[C@H](C)C(F)(F)F)cc3OC)c2Cl)CC[C@H](S(C)(=O)=O)CC1` (relative stereo) [Example 94, Ethyl (1s*,4S*)-1-((4-chloro-1-ethyl-5-(2-methoxy-4-(((R)-1,1,1-trifluoropropan-2-yl)amino)phenyl)-1H-pyrazole-3-carboxamido)methyl)-4-(methylsulfonyl)cyclohexane-1-carboxylate], on full-length human RORγt (HEK-293T), the inhibition at 6 µM is 101%. The molecule further gave a pIC50 against full-length human RORγt (setting [3]) of 8.22. The pKd in experiment [1] (ThermoFluor® Assay, Kd) was 9.66.

`CCn1nc(C(=O)NC[C@H]2CC[C@H](S(C)(=O)=O)CC2)c(Cl)c1-c1c(F)cc(CC(C)C(F)(F)F)cc1F` (stereo partly drawn) [Example 197, 4-Chloro-5-(2,6-difluoro-4-(3,3,3-trifluoro-2-methylpropyl)phenyl)-1-ethyl-N-(((1r,4r)-4-(methylsulfonyl)cyclohexyl)methyl)-1H-pyrazole-3-carboxamide]: on full-length human RORγt (setting [4]), the inhibition at 0.67 µM was 70%. Moreover, the negative-log IC50 (pIC50) at full-length human RORγt (setting [3]) was 7.68. Besides, the pKd in experiment [1] (setting [5]) was 8.70.

Turning to `CCn1nc(C(=O)NC[C@]2(O)CC[C@@H](S(C)(=O)=O)CC2)c(Cl)c1-c1c(F)cc(C[C@H](C)C(F)(F)F)cc1F` (single isomer, unassigned) [Example 198, 4-Chloro-5-(2,6-difluoro-4-((S*)-3,3,3-trifluoro-2-methylpropyl)phenyl)-1-ethyl-N-(((1s,4R)-1-hydroxy-4-(methylsulfonyl)cyclohexyl)methyl)-1H-pyrazole-3-carboxamide], on full-length human RORγt (setting [4]), the inhibition at 2 µM turned out to be 69%. Further, the negative-log IC50 (pIC50) against full-length human RORγt (setting [3]) was 7.10. In experiment [1] (ThermoFluor® Assay, Kd), the pKd was 7.80.

As for `Cn1nc(C(=O)NC[C@]2(O)CC[C@@H](S(C)(=O)=O)C[C@H]2O)c(Cl)c1-c1ccc(CCCC(F)(F)F)cc1OC(F)F` (stereo in doubt) [Example 160, 4-Chloro-5-(2-(difluoromethoxy)-4-(4,4,4-trifluorobutyl)phenyl)-N-(((1R*,2R*,4R*)-1,2-dihydroxy-4-(methylsulfonyl)cyclohexyl)methyl)-1-methyl-1H-pyrazole-3-carboxamide], the inhibition at 3 µM on full-length human RORγt (setting [2]) worked out at 96%. This molecule also showed a pIC50 against full-length human RORγt (setting [3]) of 7.57. The pKd in experiment [1] (ThermoFluor® Assay, Kd) is 7.41.

With `CCCn1nc(C(=O)NC[C@H]2CC[C@H](S(C)(=O)=O)CC2)c(Cl)c1-c1ccc(C[C@H](C)C(F)(F)F)cc1OC` (single isomer, unassigned) [Example 41, 4-Chloro-5-(2-methoxy-4-((S*)-3,3,3-trifluoro-2-methylpropyl)phenyl)-N-(((1r,4S)-4-(methylsulfonyl)cyclohexyl)methyl)-1-propyl-1H-pyrazole-3-carboxamide], the inhibition at 0.67 µM on full-length human RORγt (setting [4]) amounted to 98%. At full-length human RORγt (setting [3]), this molecule showed a pIC50 of 8.10. In experiment [1] (ThermoFluor® Assay, Kd), the pKd is 9.55.

Take `CCn1nc(C(=O)NC[C@H]2CC[C@H](S(=O)(=O)NC(N)=O)CC2)c(Cl)c1-c1ccc(CC(C)(C)C(F)(F)F)cc1OC(F)F` [Example 69, N-(((1r,4r)-4-(N-Carbamoylsulfamoyl)cyclohexyl)methyl)-4-chloro-5-(2-(difluoromethoxy)-4-(3,3,3-trifluoro-2,2-dimethylpropyl)phenyl)-1-ethyl-1H-pyrazole-3-carboxamide]: on full-length human RORγt (3 μM compound concentration (footnote *)), the “RORγt (FL) Reporter Assay A or B, % inhibition” value is on record as 100* %. Besides, the negative logarithm of the IC50 (pIC50) at full-length human RORγt (HEK293T cells, read-out: RORγt (FL) Reporter Assay A or B, IC50) was 7.29. Besides, the pKd in experiment [1] (setting [5]) is 9.54.

As to `CCn1nc(C(=O)NC[C@H]2CC[C@H](S(C)(=O)=O)CC2)c(C)c1-c1ccc(CCCC(F)(F)F)cc1OC` [Example 82, 1-Ethyl-5-(2-methoxy-4-(4,4,4-trifluorobutyl)phenyl)-4-methyl-N-(((1r,4r)-4-(methylsulfonyl)cyclohexyl)methyl)-1H-pyrazole-3-carboxamide], the inhibition at 0.67 µM at full-length human RORγt (setting [4]) stood at 87%. Also, the pIC50 against full-length human RORγt (setting [3]) was 7.85. Also, the pKd in experiment [1] (setting [5]) is 8.39.

Turning to `CCn1nc(C(=O)NC[C@]2(O)CC[C@@H](S(C)(=O)=O)CC2)c(Cl)c1-c1ccc(CCC(F)(F)F)cc1OC(F)(F)F` [Example 188, 4-Chloro-1-ethyl-N-(((1s,4s)-1-hydroxy-4-(methylsulfonyl)cyclohexyl)methyl)-5-(2-(trifluoromethoxy)-4-(3,3,3-trifluoropropyl)phenyl)-1H-pyrazole-3-carboxamide], the inhibition at 2 µM on full-length human RORγt (setting [4]) was determined as 34%. For the same molecule, at full-length human RORγt (setting [3]), the pIC50 is below 5.70. Further, the pKd in experiment [1] (setting [5]) was 7.96.

Turning to `CCn1nc(C(=O)NC[C@]2(C#N)CC[C@H](S(C)(=O)=O)CC2)c(Cl)c1-c1ccc(N[C@H](C)C(F)(F)F)cc1OC` [Example 33, 4-Chloro-N-(((1r,4R)-1-cyano-4-(methylsulfonyl)cyclohexyl)methyl)-1-ethyl-5-(2-methoxy-4-(((R)-1,1,1-trifluoropropan-2-yl)amino)phenyl)-1H-pyrazole-3-carboxamide], the inhibition at 6 µM on full-length human RORγt (HEK-293T) is 88%. The molecule also showed a pIC50 against full-length human RORγt (setting [3]) of 5.96. In experiment [1] (setting [5]), the pKd was 6.35.

Take `CCn1nc(C(=O)NC[C@H]2CC[C@H](S(C)(=O)=O)CC2)c(Cl)c1-c1ccc(N[C@H](C)C(F)(F)F)cc1C` [Example 184, 4-Chloro-1-ethyl-5-(2-methyl-4-(((R)-1,1,1-trifluoropropan-2-yl)amino)phenyl)-N-(((1r,4R)-4-(methylsulfonyl)cyclohexyl)methyl)-1H-pyrazole-3-carboxamide]: at full-length human RORγt (setting [4]), the inhibition at 2 µM was found to be 101%. The pIC50 on full-length human RORγt (setting [3]) is 7.28. Moreover, the pKd in experiment [1] (setting [5]) is 7.89.

For the molecule `CCn1nc(C(=O)NC[C@]2(O)CC[C@@H](S(C)(=O)=O)CC2)c(C#N)c1-c1ccc(CC(C)C(F)(F)F)cc1OC` (stereo partly drawn) [Example 122, 4-Cyano-1-ethyl-N-(((1s,4s)-1-hydroxy-4-(methylsulfonyl)cyclohexyl)methyl)-5-(2-methoxy-4-(3,3,3-trifluoro-2-methylpropyl)phenyl)-1H-pyrazole-3-carboxamide], on full-length human RORγt (HEK-293T), the inhibition at 6 µM worked out at 104%. The pIC50 on full-length human RORγt (setting [3]) was 6.82. For the same molecule, the pKd in experiment [1] (setting [5]) is 7.57.
